The source of these data is patent US20070066615A1, “Heterocyclic compounds” (BAYER HEATHCARE AG, priority 2003, published 2007).

The term melting point denotes the temperature of the solid-liquid transition.

On to `O=C(NCC1CN(c2ccc(N3CCCC3=O)cc2)C(=O)CO1)c1ccc(Cl)s1` (stereo not shown) [Example 4, 5-Chloro-N-({5-oxo-4-[4-(2-oxo-1-pyrrolidinyl)phenyl]-2-morpholinyl}methyl)-2-thiophenecarboxamide], for which the melting point was 201 °C (dec.).
